Source: publication PMC5510889 (Metallomics : integrated biometal science, 2017)

Legend:
IsdG [1] = molecular target: T1, IsdG (Staphylococcus aureus, UniProt Q7A649); settings: cited from earlier work
IsdG [2] = molecular target: T1, IsdG; experiment: UV/Vis absorption-detected heme titration; assay type: binding
IsdI [3] = molecular target: T2, IsdI (Staphylococcus aureus, UniProt Q7A827); experiment: UV/Vis absorption-detected heme titration; assay type: binding
IsdG [4] = molecular target: T1, IsdG; experiment: Fluorescence-detected heme titration; assay type: binding
IsdI [5] = molecular target: T2, IsdI; experiment: Fluorescence-detected heme titration; assay type: binding
IsdG [6] = molecular target: T1, IsdG; experiment: Apomyoglobin competition assay; assay type: binding; settings: ratio of koff values, IsdG–heme vs IsdI–heme
myoglobin = settings: cited from earlier work
IsdG [7] = molecular target: T1, IsdG; settings: UV/Vis titration fitted to Michaelis-Menten model; cited from earlier work
IsdI [8] = molecular target: T2, IsdI; settings: UV/Vis titration fitted to Michaelis-Menten model; cited from earlier work

T1 sequence (Q7A649 whole entry): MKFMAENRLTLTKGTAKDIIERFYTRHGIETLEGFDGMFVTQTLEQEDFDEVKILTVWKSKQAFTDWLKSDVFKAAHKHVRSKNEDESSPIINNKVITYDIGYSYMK
T2 sequence (Q7A827 whole entry): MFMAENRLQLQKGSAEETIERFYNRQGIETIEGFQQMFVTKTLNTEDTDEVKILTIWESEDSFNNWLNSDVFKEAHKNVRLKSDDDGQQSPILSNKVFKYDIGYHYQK

Row | Compound | mode of inhibition of IsdG (IsdG [1]) | Kd (IsdG [2]) | Kd (IsdI [3]) | Kd (IsdG [4]) | heme binding to IsdG tighter than heme binding to IsdI (IsdG [4]; ratio of fluorescence Kd values, IsdG vs IsdI) | Kd (IsdI [5]) | rate of heme dissociation from IsdG–heme slower than from IsdI–heme (IsdG [6]) | Kd for heme dissociation from myoglobin (myoglobin) | Kd for heme, IsdG, as reported in the literature (IsdG [7]) | Kd for heme, IsdI, as reported in the literature (IsdI [8])
1 | [N-]=[N+]=[N-] [azide] | uncompetitive inhibitors | – | – | – | – | – | – | – | – | –
2 | C=CC1=C(C)c2cc3[n-]c(cc4nc(cc5[n-]c(cc1n2)c(C)c5CCC(=O)O)C(CCC(=O)O)=C4C)c(C)c3C=C.[Fe+3] [heme] | – | 34 ± 20 nM | 15 ± 10 nM | 1.4 ± 0.6 nM | nine-fold | 12.9 ± 1.3 nM | four-fold | femtomolar | micromolar | micromolar
